Results as given in US9670242B2, “Tetracyclic anthraquinone derivatives” (Tianjin Hemay Bio-Tech Co., Ltd, priority 2012, dated 2017).

Key:
[1] = Solubility of the compound in water; type: physicochemical
SK-OV-3 cells = assay: SK-OV-3 cell growth inhibition test (MTT assay); type: cell-based, human; details: growth inhibition at 667 nM, 69 h
Procedure: SK-OV-3 Cell Growth Inhibition Test (MTT Assay)
Cell strains: SK-OV-3 (human ovarian cancer cell strains); MTT; antitumor compounds; DMSO.
(§1) II. Reagents and Consumable Materials
Culture medium: 90% McCoy's 5A+10% FBS; Pancreatin (0.25% (w/v) solution was formulated with PBS, 0.53 mM of EDTA was added in the formulation); PBS; 96-well culture plate.
(§2) 1. A plate (10 cm) of cells in logarithmic growth phase that were normally cultured was collected;
(§3) 2. The culture solution was sucked out. The plate was washed with 5 mL of PBS once or twice;
(§4) 3. PBS was sucked out. 1.5 mL of 0.25% pancreatin was added to infiltrate the cells;
4. The pancreatin was sucked out. The culture plate was placed in an incubator. Digestion was carried out for about 5 min at 37° C.;
(§5) 5. 4.5 mL of complete culture solution was added to the culture plate to stop the digestion. The cells were carefully scoured with micropipette (1 ml) to give a uniform cell suspension. The suspension was implanted into a 96-well cell culture disc by 4000 cells/100 μL per well. The culture plate was incubated overnight under 5% CO2 at 37° C. In day 2, 100 μL of culture solution comprising a compound was added in each well. The plate was further incubated for 69 h under 5% CO2 at 37° C.;
(§6) 6. The culture solution was sucked out;
(§7) 7. 100 μL of serum-free culture solution containing 0.5 mg/mL MTT was added in each well. The plate was incubated for 3 h;
(§8) 8. The culture solution was carefully sucked out;
9. 100 μL of DMSO was added in each well and vibrated to dissolve;
(§9) 10. OD values were determined at 490 nM.
(§10) IV. Results and Treatments
(§11) 1. Calculation of Relative Inhibition Ratio The inhibition ratio of a compound on cell growth=(PC−n)/(PC−NC)×100%
(§12) PC: OD values of cells after normal growth in control wells without a compound;
(§13) n: OD values of cells after growth in test wells with a compound;
(§14) NC: Background OD values of blank wells without a compound and cells.

BxPc-3 cells = assay: BxPc-3 cell growth inhibition test (MTT assay); type: cell-based, human; details: growth inhibition at 2000 nM, 70 h
Procedure: BxPc-3 Cell Growth Inhibition Test (MTT Assay)
Cell strains: BxPC-3 (human pancreatic cancer cell strains); MTT; antitumor compounds; DMSO.
as §1
(§15) Culture medium: 90% RPMI-1640+10% FBS; Pancreatin (0.25% (w/v) solution was formulated with PBS, 0.53 mM of EDTA was added in the formulation); PBS; 96-well culture plate.
as §2, §3, §4
4. The culture plate was placed in an incubator. Digestion was carried out for about 8 min at 37° C.;
as §5, with “5000” for “4000”, “70” for “69”
as §6, §7, §8
(§16) 9. 100 μL of DMSO was added into each well and vibrated to dissolve;
as §9, §10, §11, §12, §13, §14

NCI-H446 cells = assay: NCI-H446 cell growth inhibition test (MTT assay); type: cell-based, human; details: growth inhibition at 222 nM, 70 h
Procedure: NCI-H446 Cell Growth Inhibition Test (MTT Assay)
Cell strains: NCI-H446 (human small cell lung cancer cell strains); MTT; antitumor compounds; DMSO.
as §1, §15, §2, §3, §4
4. The culture plate was placed in an incubator. Digestion was carried out for about 3 min at 37° C.;
as §5, with “3” for “4.5”, “70” for “69”
as §6, §7, §8, §16, §9, §10, §11, §12, §13, §14

MDA-MB-453 cells = assay: MDA-MB-453 cell growth inhibition test (SRB assay); type: cell-based, human; details: growth inhibition at 2000 nM, 69.5 h
Procedure: MDA-MB-453 Cell Growth Inhibition Test (SRB Assay)
Cell strains: MDA-MB-453 (human breast cancer cell strains); SRB: 0.4% (w/v) working solution was formulated with 1% glacial acetic acid, reserved at 4° C.; antitumor compounds; DMSO.
as §1
Culture medium: 90% L15+10% FBS; pancreatin (0.25% (w/v) solution was formulated with PBS, 0.53 mM of EDTA was added in the formulation); PBS; 96-well culture plate.
as §2, §3
(§17) 3. 1.5 mL of 0.25% pancreatin was added to the plate to infiltrate the cells;
(§18) 4. The pancreatin was sucked out. The culture plate was placed in an incubator. Digestion was carried out for about 3 min at 37° C.;
as §5, with “4” for “4.5”, “uniform single” for “uniform”, “plate” for “disc”, “7000” for “4000”, “well.” for “well. The plate was further incubated for 69 h under 5% CO2 at 37° C.;”
The plate was further incubated for 69.5 h under 5% CO2 at 37° C.;
(§19) 6. The culture solution was sucked out. 100 uL of TCA fixed cells which were diluted to 10% were added to each well. The plate was kept in a refrigerator for 1 h at 4° C.
(§20) 7. TCA stationary liquid was sucked out. Each well was washed with 150 μL of ddH2O five times;
(§21) 8. After the stationary liquid was cleansed, the plate was dried in the air at the room temperature;
(§22) 9. 60 μL of SRB staining solution was added in each well. The well was stained for 15 min at the room temperature;
(§23) 10. The SRB staining solution was sucked out. Each well was washed with 150 μL of 1% glacial acetic acid five times;
(§24) 11. After the SRB staining solution was cleansed, the plate was dried in the air at the room temperature;
(§25) 12. 100 μL of 10 mM Tris was added in each well. The plate was vibrated to dissolve out SRB;
(§26) 13. OD values were determined at 570 nM.
as §10, §11, §12, §13, §14

22Rv1 cells = assay: 22Rv1 cell growth inhibition test (SRB assay); type: cell-based, human; details: growth inhibition at 222 nM, 73 h
Procedure: 22Rv1 Cell Growth Inhibition Test (SRB Assay)
Cell strains: 22Rv1 (human prostate cancer cell strains); SRB: 0.4% (w/v) working solution was formulated with 1% glacial acetic acid, reserved at 4° C.; antitumor compounds; DMSO.
as §1, §15, §2, §3, §17, §18
as §5, with “4” for “4.5”, “uniform single” for “uniform”, “plate” for “disc”, “7000” for “4000”, “73” for “69”
as §19, §20, §21, §22, §23, §24, §25, §26, §10, §11, §12, §13, §14

| Structure (SMILES) | solubility of the compound in water [1] | Inhibition Ratio (%) (SK-OV-3 cells) | Inhibition Ratio (%) (BxPc-3 cells) | Inhibition Ratio (%) (NCI-H446 cells) | Inhibition Ratio (%) (MDA-MB-453 cells) | Inhibition Ratio (%) (22Rv1 cells) |
| --- | --- | --- | --- | --- | --- | --- |
| CC(=O)O.CCN1CCN(C(=O)CCC(=O)OCC(=O)C2(O)Cc3c(O)c4c(c(O)c3C(O[C@H]3C[C@H](n5cccc5)[C@H](O)[C@H](C)O3)C2)C(=O)c2c(OC)cccc2C4=O)CC1 (stereo partly drawn) [Example 80, 10-((3′-(pyrrol-1-yl)-2′,3′,6′-trideoxy-alphal-l-lyxo-hexylpyranyl)oxy)-7,8,9,10-tetrahydro-6,8,11-trihydroxy-13-oxo-14-(4-(4-ethylpiperazin-1-yl)-4-oxo-butyrato)-1-methoxy-5,12-naphthalenedione acetate] | more than 11 mg/ml |  |  |  |  |  |
| CC(=O)O.COc1cccc2c1C(=O)c1c(O)c3c(c(O)c1C2=O)CC(O)(C(=O)COC(=O)CCC(=O)NCc1ccncc1)CC3O[C@H]1C[C@H](n2cccc2)[C@H](O)[C@H](C)O1 (stereo partly drawn) [Example 82] | more than 6 mg/ml |  |  |  |  |  |
| CC(=O)O.COc1cccc2c1C(=O)c1c(O)c3c(c(O)c1C2=O)CC(O)(C(=O)COC(=O)CCC(=O)N1CCN(CCCN(C)C)CC1)CC3O[C@H]1C[C@H](n2cccc2)[C@H](O)[C@H](C)O1 (stereo partly drawn) [Example 87, 10-((3′-(pyrrol-1-yl)-2′,3′,6′-trideoxy-alphal-l-lyxo-hexylpyranyl)oxy)-7,8,9,10-tetrahydro-6,8,11-trihydroxy-13-oxo-14-(4-(4-(3-(dimethylamino)propyl)piperazin-1-yl)-4-oxo-butyrato)-1-methoxy-5,12-naphthalenedione acetate] | more than 16 mg/ml |  |  |  |  |  |
| CC(=O)O.COc1cccc2c1C(=O)c1c(O)c3c(c(O)c1C2=O)CC(O)(C(=O)COC(=O)CCC(=O)NCCc1cccnc1)CC3O[C@H]1C[C@H](n2cccc2)[C@H](O)[C@H](C)O1 (stereo partly drawn) [Example 85] | more than 11 mg/ml |  |  |  |  |  |
| CC(=O)O.COc1cccc2c1C(=O)c1c(O)c3c(c(O)c1C2=O)CC(O)(C(=O)COC(=O)CCC(=O)NCCc1ccncc1)CC3O[C@H]1C[C@H](n2cccc2)[C@H](O)[C@H](C)O1 (stereo partly drawn) [Example 86] | more than 3 mg/ml |  |  |  |  |  |
| COc1cccc2c1C(=O)c1c(O)c3c(c(O)c1C2=O)CC(O)(C(=O)COC(=O)CCC(=O)Nc1ccncc1)CC3OC1CC(n2cccc2)C(O)C(C)O1 (stereo not drawn) [Example 22] |  | 60.3% | 82% | 62.1% | 71.1% | 56.3% |
| COc1cccc2c1C(=O)c1c(O)c3c(c(O)c1C2=O)CC(O)(C(=O)COC(=O)CCC(=O)NCc1ccncc1)CC3OC1CC(n2cccc2)C(O)C(C)O1 (stereo not drawn) [Example 26] |  | 67.6% | 82.7% | 66.9% | 79.9% | 60.8% |
| COc1cccc2c1C(=O)c1c(O)c3c(c(O)c1C2=O)CC(O)(C(=O)COC(=O)CCC(=O)NCCc1ccc(S(N)(=O)=O)cc1)CC3OC1CC(n2cccc2)C(O)C(C)O1 (stereo not drawn) [Example 38] |  | 67.6% | 82.4% | 62.6% | 75.8% | 56.3% |
| COc1cccc2c1C(=O)c1c(O)c3c(c(O)c1C2=O)CC(O)(C(=O)COC(=O)CCC(N)=O)CC3OC1CC(n2cccc2)C(O)C(C)O1 (stereo not drawn) [Example 66] |  | 66.5% | 83.1% | 56.2% | 73.9% | 59% |
| COc1cccc2c1C(=O)c1c(O)c3c(c(O)c1C2=O)CC(O)(C(=O)COC(=O)CCC(=O)NCCOCCOCCOCCO)CC3O[C@H]1C[C@H](n2cccc2)[C@H](O)[C@H](C)O1 (stereo partly drawn) [Example 1, 10-((3′-(pyrrol-1-yl)-2′,3′,6′-trideoxy-alphal-l-lyxo-hexylpyranyl)oxy)-7,8,9,10-tetrahydro-6,8,11-trihydroxy-13-oxo-14-(4-(2-(2-(2-(2-hydroxyethoxy)ethoxy)ethoxy)ethylamino)-4-oxo-butyrato)-1-methoxy-5,12-naphthalenedione] |  | 57.3% | 82.5% | 43.2% | 77.7% | 52.2% |
| COc1cccc2c1C(=O)c1c(O)c3c(c(O)c1C2=O)CC(O)(C(=O)COC(=O)CCC(=O)NCc1ccccn1)CC3OC1CC(n2cccc2)C(O)C(C)O1 (stereo not drawn) [Example 30] |  | 59.9% | 85.2% | 61% | 79.9% | 62.3% |
| COc1cccc2c1C(=O)c1c(O)c3c(c(O)c1C2=O)CC(O)(C(=O)COC(=O)CCCC(=O)NCCc1ccccn1)CC3OC1CC(n2cccc2)C(O)C(C)O1 (stereo not drawn) [Example 35] |  | 57.8% | 81.3% | 57.2% | 77.1% | 58.5% |
| COc1cccc2c1C(=O)c1c(O)c3c(c(O)c1C2=O)CC(O)(C(=O)COC(=O)CCCC(=O)Nc1ccc(CN2CCOCC2)cc1)CC3OC1CC(n2cccc2)C(O)C(C)O1 (stereo not drawn) [Example 3] |  | 62.5% | 81.2% | 60.8% | 73.9% | 61.9% |
